The text below walks through data of PubChem BioAssay AID248 (DTP/NCI, 2004).

Each structure is given as a SMILES string. Several values for one entry are separate records, joined by “and”; a condition that tells them apart may be missing. Equal entries are not always repeated. Inconclusive results and toxic doses are left out.

This experiment has as its system L1210 leukemia ip in BDF1 mice, survival T/C. The experiment can be described thus: NCI In Vivo Anticancer Drug Screen. Data for tumor model L1210 Leukemia (intraperitoneal) in B6D2F1 (BDF1) mice. The following applies: endpoint: mean survival time, higher = longer survival. The gist of the method: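 Each compound was tested against a transplantable tumor grown in mice. The endpoint was survival, with treated animals benchmarked against vehicle controls as a simple ratio.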

[1] abbreviates: dose: 100.0 mg/kg/injection, schedule: Q01DX009 (ip), vehicle: Klucel (hydroxypropylcellulose) (HPC).
Setting [2] is: dose: 100.0 mg/kg/injection, schedule: Q04DX003 (ip), vehicle: Klucel (hydroxypropylcellulose) (HPC).
[3] abbreviates: dose: 100.0 mg/kg/injection, schedule: Q04DX003 (ip), vehicle: saline with Tween-80.
[4] abbreviates: dose: 200.0 mg/kg/injection, schedule: Q01DX009 (ip), vehicle: Klucel (hydroxypropylcellulose) (HPC).
The mark [5] stands for this setting: dose: 200.0 mg/kg/injection, schedule: Q04DX003 (ip), vehicle: Klucel (hydroxypropylcellulose) (HPC).
Where [6] appears, read: dose: 200.0 mg/kg/injection, schedule: Q04DX003 (ip), vehicle: saline with Tween-80.
Setting [7] is: dose: 400.0 mg/kg/injection, schedule: Q01DX009 (ip), vehicle: Klucel (hydroxypropylcellulose) (HPC).
[8] abbreviates: dose: 400.0 mg/kg/injection, schedule: Q04DX003 (ip), vehicle: Klucel (hydroxypropylcellulose) (HPC).
[9] abbreviates: dose: 400.0 mg/kg/injection, schedule: Q04DX003 (ip), vehicle: saline with Tween-80.
The mark [10] stands for this setting: dose: 100.0 mg/kg/injection, schedule: Q01DX001 (ip), vehicle: carboxymethylcellulose (CMC).
The mark [11] stands for this setting: dose: 200.0 mg/kg/injection, schedule: Q01DX001 (ip), vehicle: carboxymethylcellulose (CMC).
The mark [12] stands for this setting: dose: 400.0 mg/kg/injection, schedule: Q01DX001 (ip), vehicle: carboxymethylcellulose (CMC).
[13] abbreviates: dose: 100.0 mg/kg/injection, schedule: Q04DX002 (ip), vehicle: saline with Tween-80.
[14] abbreviates: dose: 200.0 mg/kg/injection, schedule: Q04DX002 (ip), vehicle: saline with Tween-80.
The mark [15] stands for this setting: dose: 100.0 mg/kg/injection, schedule: Q04DX002 (ip), vehicle: Klucel (hydroxypropylcellulose) (HPC).
Setting [16] is: dose: 400.0 mg/kg/injection, schedule: Q04DX002 (ip), vehicle: Klucel (hydroxypropylcellulose) (HPC).
[17] abbreviates: dose: 100.0 mg/kg/injection, schedule: Q01DX001 (ip), vehicle: saline with Tween-80.
Setting [18] is: dose: 100.0 mg/kg/injection, schedule: Q01DX009 (ip), vehicle: saline with Tween-80.
Setting [19] is: dose: 200.0 mg/kg/injection, schedule: Q01DX001 (ip), vehicle: saline with Tween-80.
Where [20] appears, read: dose: 200.0 mg/kg/injection, schedule: Q01DX009 (ip), vehicle: saline with Tween-80.
Where [21] appears, read: dose: 400.0 mg/kg/injection, schedule: Q01DX009 (ip), vehicle: saline with Tween-80.
[22] abbreviates: dose: 100.0 mg/kg/injection, schedule: Q04DX003 (ip), vehicle: saline.
Setting [23] is: dose: 200.0 mg/kg/injection, schedule: Q04DX003 (ip), vehicle: saline.
Where [24] appears, read: dose: 400.0 mg/kg/injection, schedule: Q04DX003 (ip), vehicle: saline.
The mark [25] stands for this setting: dose: 100.0 mg/kg/injection, schedule: Q01DX001 (ip), vehicle: Klucel (hydroxypropylcellulose) (HPC).
[26] abbreviates: dose: 200.0 mg/kg/injection, schedule: Q01DX001 (ip), vehicle: Klucel (hydroxypropylcellulose) (HPC).
Setting [27] is: dose: 25.0 mg/kg/injection, schedule: Q01DX009 (ip), vehicle: Klucel (hydroxypropylcellulose) (HPC).
Setting [28] is: dose: 100.0 mg/kg/injection, schedule: Q01DX009 (ip), vehicle: saline.

`O=C(NC(CO)C(=O)OCc1ccccc1)OCc1ccccc1` (centres undefined): the T/C reads like this: under setting [1], 104 % of control; under setting [2], 104 % of control; under setting [3], 98 % of control; under setting [4], 102 % of control; under setting [5], 101 % of control; under setting [6], 95 % of control. The T/C under setting [7] is 102 % of control, the T/C under setting [8] was 90 % of control and the T/C under setting [9] was 90 % of control.

Turning to `COc1ccccc1NC(=O)N(O)C1(C#N)CCCCC1`, the T/C was 94 % of control under setting [10], 93 % of control under setting [11] and 96 % of control under setting [12].

Regarding `O=C1c2cccnc2C(=O)c2c(O)ccc(O)c21`, the T/C (dose: 50.0 mg/kg/injection, schedule: Q01DX001 (ip), vehicle: carboxymethylcellulose (CMC)) was 100 % of control; the T/C under setting [10] is 108 % of control; the T/C under setting [11] was 100 % of control; the T/C under setting [12] was 108 % of control.

Take `O=[N+]([O-])c1ccc2c(c1)S(=O)c1cc([N+](=O)[O-])c(Br)cc1-2` (centres undefined) (tested in a mixture with another compound): the T/C is 96 % of control (dose: 50.0 mg/kg/injection, schedule: Q04DX002 (ip), vehicle: saline with Tween-80); 96 % of control under setting [13]; 96 % of control under setting [14].

`COC(=O)CCC(=O)/C=C1/Nc2ccccc2C1=O`: the T/C under setting [3] is 92 % of control, the T/C under setting [6] was 95 % of control and the T/C under setting [9] is 90 % of control.

As to `Clc1ccc2c(c1)C1c3ccccc3C2C2c3ccccc3C1c1ccccc12` (centres undefined), the T/C (dose: 50.0 mg/kg/injection, schedule: Q04DX002 (ip), vehicle: Klucel (hydroxypropylcellulose) (HPC)) was 117 % of control; the T/C under setting [15] is 102 % of control; the T/C (dose: 200.0 mg/kg/injection, schedule: Q04DX002 (ip), vehicle: Klucel (hydroxypropylcellulose) (HPC)) is 95 % of control and 88 % of control; the T/C under setting [16] is 88 % of control.

Consider `Cc1ncc(C(O)(c2ccccc2)C(C)C)n1Cc1ccccc1` (centres undefined), for which the T/C by setting is: under setting [17], 94 % of control; under setting [18], 95 % of control and 96 % of control; under setting [13], 95 % of control and 97 % of control; under setting [3], 101 % of control; under setting [19], 92 % of control; under setting [20], 95 % of control and 108 % of control. For the same molecule, the T/C under setting [14] is 93 % of control and 113 % of control; the T/C under setting [6] is 97 % of control; the T/C (dose: 400.0 mg/kg/injection, schedule: Q01DX001 (ip), vehicle: saline with Tween-80) is 94 % of control; the T/C under setting [21] is 102 % of control; the T/C (dose: 400.0 mg/kg/injection, schedule: Q04DX002 (ip), vehicle: saline with Tween-80) was 98 % of control and 103 % of control; the T/C under setting [9] is 101 % of control.

Consider `Cc1nc(-c2ccccc2)oc1-c1ccccc1`, for which the T/C under setting [22] was 92 % of control, the T/C under setting [23] is 95 % of control and the T/C under setting [24] was 92 % of control.

Take `O=c1[nH]cc(/C=N/O)c(=O)[nH]1`: the T/C is, setting by setting: under setting [10], 106 % of control; under setting [11], 106 % of control; under setting [12], 101 % of control.

Regarding `COc1ccc(-c2cnc3c(N)nn(C)c3n2)cc1`, the T/C by setting is: under setting [18], 109 % of control; under setting [3], 92 % of control; under setting [20], 101 % of control; under setting [6], 100 % of control; under setting [21], 109 % of control; under setting [9], 94 % of control.

`CCCCCC[Si](Cl)(CCCCCC)CCCCCC`: the T/C is 87 % of control (dose: 100.0 mg/kg/injection, schedule: Q01DX001 (ip), vehicle: saline) and 98 % of control (dose: 200.0 mg/kg/injection, schedule: Q01DX001 (ip), vehicle: saline).

For `O=[N+]([O-])c1ccccc1N1CCCCC1`, the T/C under setting [2] was 97 % of control, the T/C under setting [5] was 89 % of control and the T/C under setting [8] is 109 % of control.

As to `CCN(CCO)c1ccc(N=Nc2ccc([N+](=O)[O-])cc2)cc1`, the T/C was 105 % of control under setting [25]; 96 % of control under setting [26]; 100 % of control (dose: 400.0 mg/kg/injection, schedule: Q01DX001 (ip), vehicle: Klucel (hydroxypropylcellulose) (HPC)).

Regarding `CN(C)/N=C1\C(=O)Nc2ccccc21`, the T/C was 101 % of control under setting [27]; 117 % of control (dose: 50.0 mg/kg/injection, schedule: Q01DX009 (ip), vehicle: Klucel (hydroxypropylcellulose) (HPC)); 104 % of control (dose: 50.0 mg/kg/injection, schedule: Q04DX003 (ip), vehicle: Klucel (hydroxypropylcellulose) (HPC)); 102 % of control and 103 % of control under setting [1]; 106 % of control under setting [2]; 97 % of control under setting [5]. For the same molecule, under setting [8], the T/C is 103 % of control.

In the case of `O=C(NCCCl)Nc1ccccc1`, the T/C under setting [25] was 93 % of control, the T/C under setting [2] is 122 % of control, the T/C under setting [26] is 101 % of control and the T/C under setting [5] is 104 % of control.

As for `O=P(c1ccc(F)cc1)(c1ccc(F)cc1)c1ccc(F)cc1`, the T/C is 101 % of control (dose: 12.5 mg/kg/injection, schedule: Q01DX009 (ip), vehicle: Klucel (hydroxypropylcellulose) (HPC)) and 103 % of control under setting [27].

For the molecule `CNCCN(C)CCNC`, the T/C runs as follows: (dose: 50.0 mg/kg/injection, schedule: Q01DX009 (ip), vehicle: saline) 104 % of control; under setting [28], 101 % of control; under setting [22], 103 % of control; under setting [23], 96 % of control.

Consider `CCCCCCCC(=O)CCC`, for which the T/C by setting is: under setting [1], 108 % of control; under setting [2], 98 % of control; under setting [4], 104 % of control; under setting [5], 89 % of control; under setting [7], 102 % of control; under setting [8], 89 % of control.

For `CCN=C(c1ccc(NC(=O)c2ccc(C(=O)Nc3ccc(C(=NCC)N(CC)C(=O)Nc4ccc(OC)cc4)cc3)cc2)cc1)N(CC)C(=O)Nc1ccc(OC)cc1`, the T/C (dose: 2.25 mg/kg/injection, schedule: Q01DX015 (ip), vehicle: methylcellulose (MC)) was 108 % of control; the T/C (dose: 3.12 mg/kg/injection, schedule: Q01DX015 (ip), vehicle: methylcellulose (MC)) is 101 % of control; the T/C (dose: 4.5 mg/kg/injection, schedule: Q01DX015 (ip), vehicle: methylcellulose (MC)) is 110 % of control; the T/C (dose: 6.25 mg/kg/injection, schedule: Q01DX015 (ip), vehicle: methylcellulose (MC)) was 124 % of control; the T/C (dose: 12.5 mg/kg/injection, schedule: Q01DX015 (ip), vehicle: methylcellulose (MC)) was 170 % of control.

In the case of `CC(=O)OC(C)CN(C)C` (centres undefined), the T/C was 103 % of control under setting [28]; 103 % of control under setting [22]; 100 % of control (dose: 200.0 mg/kg/injection, schedule: Q01DX009 (ip), vehicle: saline); 105 % of control under setting [23]; 100 % of control (dose: 400.0 mg/kg/injection, schedule: Q01DX009 (ip), vehicle: saline); 93 % of control under setting [24].

Consider `O=S(=O)(c1ccc(Cl)cc1)C(Cl)(Cl)Cl`, for which the T/C is, setting by setting: under setting [1], 93 % of control; under setting [4], 97 % of control; under setting [7], 96 % of control.

Turning to `O=C(Nc1ccccc1)Oc1ccc(Cl)cc1Cc1ccccc1`, the T/C under setting [15] is 87 % of control and the T/C under setting [16] was 101 % of control.

`O=C(O)c1ccc(CCc2cccnc2)cc1`: the T/C by setting is: under setting [17], 96 % of control; under setting [19], 98 % of control.
